Laboratory results taken from US7115750B1, “Melanin concentrating hormone antagonist” (Takeda Pharmaceutical Company Limited, priority 1999, dated 2006).

| SMILES | melting point |
| --- | --- |
| CN(C)CC1=Cc2ccc(NC(=O)c3ccc(-c4ccc(F)cc4F)nc3)cc2CC1 [Example 152, 6-(2,4-Difluorophenyl)-N-[6-[(dimethylamino)methyl]-7,8-dihydro-2-naphthalenyl]nicotinamide] | 162 to 163 °C |
| O=C(Nc1ccc2c(c1)CCC(CN1CCCC1)=C2)N1CCC(c2ccc(Cl)cc2)CC1 [Example 165, 4-(4-Chlorophenyl)-N-[6-(1-pyrrolidinylmethyl)-7,8-dihydro-2-naphthalenyl]-1-piperidinecarboxamide] | 194 to 195 °C |
| Cc1ccc(C2CCN(C(=O)Nc3ccc4c(c3)CCC(CN(C)C)=C4)CC2)cc1 [Example 167, N-[6-[(Dimethylamino)methyl]-7,8-dihydro-2-naphthalenyl]-4-(4-methylphenyl)-1-piperidinecarboxamide] | 200 to 202 °C |
| CN(C)CCNC(=O)Cc1ccc(NC(=O)CCCc2nc(-c3cc4ccccc4o3)no2)cc1 [Example 182, 4-[3-(1-Benzofuran-2-yl)-1,2,4-oxadiazol-5-yl]-N-[4-[2-[[2-(dimethylamino)ethyl]amino]-2-oxoethyl]phenyl]butanamide] | 161 to 163 °C |
| CN(C)CCNC(=O)Cc1ccc(NC(=O)c2cc3ccccc3s2)cc1 [Example 185, N-[4-[2-[[2-(Dimethylamino)ethyl]amino]-2-oxoethyl]phenyl]-1-benzothiophen-2-carboxamide] | 186 to 187 °C (dec.) |
| CN(C)CCNC(=O)Cc1ccc(NC(=O)Cc2ccccc2Cc2ccccc2)cc1 [Example 186, 2-(2-Benzylphenyl)-N-[4-[2-[[2-(dimethylamino)ethyl]amino]-2-oxoethyl]phenyl]acetamide] | 115 to 117 °C |
| COc1ccc(CC(=O)Nc2ccc(CC(=O)NCCN(C)C)cc2)cc1OC [Example 187, 2-(3,4-dimethoxyphenyl)-N-[4-[2-[[2-(dimethylamino)ethyl]amino]-2-oxoethyl]phenyl]acetamide] | 123 to 124 °C |
| COc1ccc2[nH]c(C)c(CC(=O)Nc3ccc(CC(=O)NCCN(C)C)cc3)c2c1 [Example 188, N-[4-[2-[[2-(Dimethylamino)ethyl]amino]-2-oxoethyl]phenyl]-2-(5-methoxy-2-methyl-1H-indol-3-yl)acetamide] | 125 to 126 °C |
| CN(C)CCNC(=O)Cc1ccc(NC(=O)CCCc2c[nH]c3ccccc23)cc1 [Example 189, N-[4-[2-[[2-(Dimethylamino)ethyl]amino]-2-oxoethyl]phenyl]-4-(1H-indol-3-yl)butanamide] | 132 to 133 °C |
| CN(C)CCNC(=O)Cc1ccc(NC(=O)c2ccc(OCc3ccc(-c4ccccc4)cc3)cc2)cc1 [Example 191, 4-([1,1′-Biphenyl]-4-ylmethoxy)-N-[4-[2-[[2-(dimethylamino)ethyl]amino]-2-oxoethyl]phenyl]benzamide] | 204 to 208 °C |
| CN(C)CCNC(=O)Cc1ccc(NC(=O)c2ccc(NC(=O)c3ccccc3)cc2)cc1 [Example 192, 4-(Benzoylamino)-N-[4-[2-[[2-(dimethylamino)ethyl]amino]-2-oxoethyl]phenyl]benzamide] | 220 to 221 °C |
| COc1ccc(-c2ccc(C(=O)Nc3ccc(CC(=O)NCCN(C)C)cc3)cc2)cc1 [Example 193, N-[4-[2-[[2-(Dimethylamino)ethyl]amino]-2-oxoethyl]phenyl]-4′-methoxy[1,1′-biphenyl]-4-carboxamide] | 196 to 198 °C (dec.) |
| CN(C)CCNC(=O)Cc1ccc(NC(=O)c2ccc3c(c2)S(=O)(=O)c2ccccc2C3=O)cc1 [Example 194, N-[4-[2-[[2-(Dimethylamino)ethyl]amino]-2-oxoethyl]phenyl]-9,10,10-trioxo-9,10-dihydro-10λ^6-thioxanten-3-carboxamide] | 162 to 163 °C (dec.) |
| CN(C)CCNC(=O)Cc1ccc(NC(=O)c2ccc(OCc3ccccc3)cc2)cc1 [Example 195] | 190 to 192 °C (dec.) |
| CN(C)CCNC(=O)Cc1ccc(NC(=O)c2ccc(C(=O)c3ccccc3)cc2)cc1 [Example 196, 4-Benzoyl-N-[4-[2-[[2-(dimethylamino)ethyl]amino]-2-oxoethyl)phenyl]benzamide] | 173 to 175 °C (dec.) |
| Cc1cc(-c2ccncc2)c(C(=O)Nc2ccc(CC(=O)NCCN(C)C)cc2)[nH]1 [Example 197, N-[4-[2-[[2-(Dimethylamino)ethyl]amino]-2-oxoethyl]phenyl]-5-methyl-3-(4-pyridinyl)-1H-pyyrole-2-carboxamide] | 215 to 218 °C (dec.) |
| CN(C)CC1CCc2cc(NC(=O)N3CCC(c4ccc(F)cc4)CC3)ccc2C1O (centres unmarked) [Example 203, N-[6-[(Dimethylamino)methyl]-5-hydroxy-5,6,7,8-tetrahydro-2-naphthalenyl]-4-(4-fluorophenyl)-1-piperidinecarboxamide] | 160 to 163 °C |
| CN(C)CC1CCc2cc(NC(=O)c3ccc(-c4ccc(C#N)cc4)cc3)ccc2C1 (centres unmarked) [Example 207, 4′-Cyano-N-[6-[(dimethylamino)methyl]-5,6,7,8-tetrahydro-2-naphthalenyl][1,1′-biphenyl]-4-carboxamide] | 183 to 185 °C |
| CN(C)CCC1CCc2cc(NC(=O)c3ccc(-c4ccccc4)cc3)ccc2C1 (centres unmarked) [Example 209, N-[6-[2-(Dimethylamino)ethyl]-5,6,7,8-tetrahydro-2-naphthalenyl][1,1′-biphenyl]-4-carboxamide] | 112 to 114 °C |
| CC1=C(CN2CCCC2)CCc2cc(NC(=O)N3CCC(c4ccc(C)cc4)CC3)ccc21 [Example 238, 4-(4-Methylphenyl)-N-[5-methyl-6-(1-pyrrolidinylmethyl)-7,8-dihydro-2-naphthalenyl]-1-piperidinecarboxamide] | 159 to 160 °C |
| Cc1ccc(C2CCN(C(=O)Nc3ccc4c(c3)CCC(CN3CCN(C)CC3)=C4)CC2)cc1 [Example 241, 4-(4-Methylphenyl)-N-[6-[(4-methyl-1-piperazinyl)methyl]-7,8-dihydro-2-naphthalenyl]-1-piperidinecarboxamide] | 214 to 216 °C |

Second part, the molecule after the results:

| melting point | SMILES |
| --- | --- |
| 187 to 188 °C | COc1ccc(-c2ccc(C(=O)Nc3ccc4c(c3)CCC(CN3CCCC3)=C4)cc2)cc1 [Example 148, 4′-Methoxy-N-[6-(1-pyrrolidinylmethyl)-7,8-dihydro-2-naphthalenyl][1,1′-biphenyl]-4-carboxamide] |
| 225 to 227 °C | O=C(Nc1ccc2c(c1)CCC(CN1CCCC1)=C2)c1ccc(-c2ccc(F)cc2)nc1 [Example 149, 6-(4-Fluorophenyl)-N-[6-[(1-pyrrolidinyl)methyl]-7,8-dihydro-2-naphthalenyl]nicotinamide] |
| 216 to 219 °C | CN(C)CC1=Cc2ccc(NC(=O)c3ccc(-c4ccc(F)cc4)nc3)cc2CC1 [Example 151] |
| 186 to 187 °C | O=C(Nc1ccc2c(c1)CCC(CN1CCCC1)=C2)c1ccc(-c2ccccc2)nc1 [Example 153, 6-Phenyl-N-[6-(1-pyrrolidinylmethyl)-7,8-dihydro-2-naphthalenyl]nicotinamide] |
| 197 to 198 °C | Cc1ccc(C2CCN(C(=O)Nc3ccc4c(c3)CCC(CN3CCCC3)=C4)CC2)cc1 [Example 155, 4-(4-Methylphenyl)-N-[6-(1-pyrrolidinylmethyl)-7,8-dihydro-2-naphthalenyl]-1-piperidinecarboxamide] |
| 206 to 207 °C | O=C(Nc1ccc2c(c1)CCC(CN1CCCC1)=C2)N1CC=C(c2ccc(F)cc2)CC1 [Example 158] |
| 217 to 218 °C | O=C(Nc1ccc2c(c1)CCC(CN1CCCC1)=C2)N1CC=C(c2ccc(Cl)cc2)CC1 [Example 159] |
| 252 to 253 °C | O=C(Nc1ccc2c(c1)CCC(CN1CCCC1)=C2)c1ccc(-c2ccc(Cl)cc2)nc1 [Example 162, 6-(4-Chlorophenyl)-N-[6-(1-pyrrolidinylmethyl)-7,8-dihydro-2-naphthalenyl]nicotinamide] |
| 248 to 249 °C | CN(C)CC1=Cc2ccc(NC(=O)c3ccc(-c4ccc(Cl)cc4)nc3)cc2CC1 [Example 164, 6-(4-Chlorophenyl)-N-[6-[(dimethylamino)methyl]-7,8-dihydro-2-naphthalenyl]nicotinamide] |
| 179 to 180 °C | COc1ccc(-c2ccc(C(=O)Nc3ccc4c(c3)CCC(CN3CCCC3)=C4C)cc2)cc1 [Example 200, 4′-Methoxy-N-[6-(1-pyrrolidinylmethyl)-5-methyl-7,8-dihydro-2-naphthalenyl][1,1′-biphenyl]-4-carboxamide] |
| 184 to 186 °C | O=C(Nc1ccc2c(c1)CCC(CCN1CCCC1)=C2)c1ccc(-c2ccccc2)cc1 [Example 204, N-[6-[2-(1-Pyrrolidinyl)ethyl]-7,8-dihydro-2-naphthalenyl][1,1′-biphenyl]-4-carboxamide] |
| 187 to 189 °C | O=C(Nc1ccc2c(c1)CCC(CCN1CCCC1)=C2)c1ccc(-c2ccc(F)cc2)cc1 [Example 205, 4′-Fluoro-N-[6-[2-(1-pyrrolidinyl)ethyl]-7,8-dihydro-2-naphthalenyl][1,1′-biphenyl]-4-carboxamide] |
| 207 to 209 °C | O=C(Nc1ccc2c(c1)CCC(CCN1CCCC1)=C2)c1ccc(-c2ccc(Cl)cc2)cc1 [Example 206, 4′-Chloro-N-[6-[2-(1-pyrrolidinyl)ethyl]-7,8-dihydro-2-naphthalenyl][1,1′-biphenyl]-4-carboxamide] |
| 148 to 150 °C | CN(C)CCC1=Cc2ccc(NC(=O)c3ccc(-c4ccccc4)cc3)cc2CC1 [Example 208, N-[6-[2-(Dimethylamino)ethyl]-7,8-dihydro-2-naphthalenyl][1,1′-biphenyl]-4-carboxamide] |
| 175 to 176 °C | CC1=C(CN2CCCC2)CCc2cc(NC(=O)c3ccc(-c4ccc(C)cc4)nc3)ccc21 [Example 228, 6-(4-Methylphenyl)-N-[5-methyl-6-(1-pyrrolidinylmethyl)-7,8-dihydro-2-naphthalenyl]nicotinamide] |
| 199 to 201 °C | CC1=C(CN2CCCC2)CCc2cc(NC(=O)c3ccc(-c4ccc(F)cc4)cc3)ccc21 [Example 229, 4′-Fluoro-N-[5-methyl-6-(1-pyrrolidinylmethyl)-7,8-dihydro-2-naphthalenyl][1,1′-biphenyl]-4-carboxamide] |
| 178 to 179 °C | CC1=C(CN2CCCC2)CCc2cc(NC(=O)c3ccc(-c4ccccc4)nc3)ccc21 [Example 233, N-[5-Methyl-6-(1-pyrrolidinylmethyl)-7,8-dihydro-2-naphthalenyl]-6-phenylnicotinamide] |
